Drawing on patent US8048892B2, “Azaquinolone based compounds exhibiting prolyl hydroxylase inhibitory activity, compositions, and uses thereof” (Amgen Inc., priority 2006, dated 2011), this text covers IC50 for 24 compounds.

Each structure is given as a SMILES string. Counter-ions that a name gives are not always drawn.

By IC50 is commonly meant the concentration that gives 50% inhibition. Read a high IC50 as weaker potency in that assay.

The target in this experiment is HIF PHD2 (Homo sapiens, UniProt Q9GZT9). In words: PHD2 inhibition assay (TR-FRET, VCB-Eu detection of hydroxylated P564-HIF1α peptide). The format is biochemical. To be noted: 2 nM PHD2, 100 nM P564-HIF1α peptide, 0.25 μM 2-oxoglutarate. As for the experimental part: Inhibition of HIF PHD2 activity was quantified utilizing the TR-FRET technology. HIF PHD2 catalyzes a hydroxyl modification on the proline residue of the P564-HIF1α peptide substrate (Biotin-DLEMLAPYIPMDDDFQL (SEQ ID NO: 7)) resulting in recognition and binding of the europylated Von Hippel-Lindau protein (pVHL), elongin B and elongin C heterotrimeric (VCB-Eu) complex.
Chain of HIF PHD2 (Q9GZT9 whole entry): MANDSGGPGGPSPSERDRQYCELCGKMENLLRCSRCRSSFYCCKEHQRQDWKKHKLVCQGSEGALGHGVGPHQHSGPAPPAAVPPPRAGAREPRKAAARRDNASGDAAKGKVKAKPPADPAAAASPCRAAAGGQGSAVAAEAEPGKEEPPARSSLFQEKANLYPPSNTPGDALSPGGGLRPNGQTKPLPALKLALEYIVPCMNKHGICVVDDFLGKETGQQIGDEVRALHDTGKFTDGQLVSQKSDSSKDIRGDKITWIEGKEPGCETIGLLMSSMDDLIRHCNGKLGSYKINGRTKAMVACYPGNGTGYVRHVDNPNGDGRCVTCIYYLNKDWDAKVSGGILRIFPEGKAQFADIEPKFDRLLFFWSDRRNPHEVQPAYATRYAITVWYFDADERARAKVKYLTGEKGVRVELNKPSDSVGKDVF
The PHD2 inhibition assay was executed by addition of freshly dissolved FeCl2 to 178.57 μM (100 μM final concentration) in PHD2 Reaction Buffer containing 30 mM MES, pH 6, 10 mM NaCl, 0.25% Brij-35, 0.01% BSA, and 1% DMSO. 28 μL of the iron solution and 2 μL of inhibitor compounds serially diluted in 100% DMSO (5% DMSO final) were added to black polypropylene 96-well microtiter plates. To that, 10 μL of 10 nM PHD2 (2 nM final) was added to all wells of the plate except for the 8 wells of column 12 (LO control), and allowed to incubate at room temperature on the shaker for one hour. Column 6 was the HI control containing PHD2 enzyme and 5% DMSO vehicle, but no inhibitor compound. To initiate the PHD2 enzymatic reaction, 10 μL of a solution containing 500 nM P564-HIF1α peptide (100 nM final), 10 mM ascorbic acid (2 mM final), and 1.25 μM 2-oxoglutarate (α-ketoglutarate; 0.25 μM final) in PHD2 Reaction Buffer was added to all wells of the plate and allowed to incubate on the shaker at room temperature for one hour.
The reaction was terminated by addition of 25 μL TR-FRET Buffer (50 mM TRIS-HCl, pH 9, 100 mM NaCl, 0.05% BSA, and 0.5% Tween-20) containing 150 mM succinate (product inhibitor; 50 mM final), 75 nM streptavidin-APC (25 nM final), and 7.5 nM VCB-Eu (2.5 nM final). The TR-FRET detection reagents were placed on a shaker for 1 hour to reach binding equilibrium before reading on the Discovery platform (PerkinElmer). Europium is excited at 315 nm and phosphoresces at 615 nm with a large Stoke's shift. APC, in turn, emits at 655 nm upon excitation at 615 nm. The TR-FRET signal is measured as the ratio of the APC 655 nm signal divided by the internal europium reference 615 nm emission signal.
The POC (percentage of control) was determined by comparing the signal from hydroxylated peptide substrate in the enzyme reaction containing inhibitor compound with that from PHD2 enzyme with DMSO vehicle alone (HI control), and no enzyme (LO control). POC was calculated using the formula: % control (POC)=(cpd−average LO)/(average HI−average LO)*100. Data (consisting of POC and inhibitor concentration in μM) was fitted to a 4-parameter equation (y=A+((B−A)/(1+((x/C)^D))), where A is the minimum y (POC) value, B is the maximum y (POC), C is the x (cpd concentration) at the point of inflection and D is the slope factor) using a Levenburg-Marquardt non-linear regression algorithm.
Background: TR-FRET usually uses a lanthanide donor and a delayed reading to cut background.
In turn, `Cc1ncccc1-c1cc2c(O)c(C(=O)NCC(=O)O)c(=O)n(C)c2nc1C(F)(F)F` [Example 92, 2-(4-Hydroxy-1-methyl-6-(2-methylpyridin-3-yl)-2-oxo-7-(trifluoromethyl)-1,2-dihydro-1,8-naphthyridine-3-carboxamido)acetic acid] yielded an IC50 of less than 50 nM. With `Cc1ccccc1-c1cc2c(O)c(C(=O)NCC(=O)O)c(=O)n(C)c2cn1` [Example 106, N-((4-Hydroxy-1-methyl-6-(2-methylphenyl)-2-oxo-1,2-dihydro-1,7-naphthyridin-3-yl)carbonyl)glycine] the figure was less than 50 nM. Consider `Cn1c(=O)c(C(=O)NCC(=O)O)c(O)c2ccc(-c3cccs3)nc21` [Example 14, N-((4-Hydroxy-1-methyl-2-oxo-7-(2-thienyl)-1,2-dihydro-1,8-naphthyridin-3-yl)carbonyl)glycine], for which the IC50 was less than 50 nM. The result for `Cn1c(=O)c(C(=O)NCC(=O)O)c(O)c2cc(I)cnc21` [Example 75, 2-(4-Hydroxy-6-iodo-1-methyl-2-oxo-1,2-dihydro-1,8-naphthyridine-3-carboxamido)acetic acid] reads less than 50 nM; that for `Cn1c(=O)c(C(=O)NCC(=O)O)c(O)c2c(Br)nccc21` [Example 130, 2-(5-Bromo-4-hydroxy-1-methyl-2-oxo-1,2-dihydro-1,6-naphthyridine-3-carboxamido)acetic acid, Trifluoroacetic acid salt], less than 50 nM. Compound `CC#Cc1cnc2c(O)c(C(=O)NCC(=O)O)c(=O)n(C)c2c1` [Example 8, 2-(4-Hydroxy-1-methyl-2-oxo-7-(prop-1-ynyl)-1,2-dihydro-1,5-naphthyridine-3-carboxamido)acetic acid] showed a 50% inhibitory concentration (IC50) of 50 to 100 nM. With `Cc1ccccc1-c1cnc2c(c1)c(O)c(C(=O)NCC(=O)O)c(=O)n2C` [Example 35, N-((4-Hydroxy-1-methyl-6-(2-methylphenyl)-2-oxo-1,2-dihydro-1,8-naphthyridin-3-yl)carbonyl)glycine] the figure was 50 to 100 nM; with `Cn1c(=O)c(C(=O)NCC(=O)O)c(O)c2ccc(-c3ccccc3)nc21` [Example 12, 2-(4-Hydroxy-1-methyl-2-oxo-7-phenyl-1,2-dihydro-1,8-naphthyridine-3-carboxamido)acetic acid], less than 50 nM.

On to `Cn1c(=O)c(C(=O)NCC(=O)O)c(O)c2ccc(C#CC3CC3)nc21` [Example 21, 2-(7-(2-Cyclopropylethynyl)-4-hydroxy-1-methyl-2-oxo-1,2-dihydro-1,8-naphthyridine-3-carboxamido)acetic acid], for which the IC50 is less than 50 nM. Compound `Cn1c(=O)c(C(=O)NCC(=O)O)c(O)c2cc(-c3ccccc3)cnc21` [Example 46, 2-(4-Hydroxy-1-methyl-2-oxo-6-phenyl-1,2-dihydro-1,8-naphthyridine-3-carboxamido)acetic acid] registered a 50% inhibitory concentration (IC50) of 100 to 500 nM. The result for `Cn1c(=O)c(C(=O)NCC(=O)O)c(O)c2cc(C3CCOC3)c(C(F)(F)F)nc21` (single isomer, unassigned) [Example 104, (R)-2-(4-Hydroxy-1-methyl-2-oxo-6-(tetrahydrofuran-3-yl)-7-(trifluoromethyl)-1,2-dihydro-1,8-naphthyridine-3-carboxamido)acetic acid or (S)-2-(4-Hydroxy-1-methyl-2-oxo-6-(tetrahydrofuran-3-yl)-7-(trifluoromethyl)-1,2-dihydro-1,8-naphthyridine-3-carboxamido)acetic acid] reads 50 to 100 nM; that for `Cn1c(=O)c(C(=O)NCC(=O)O)c(O)c2ccc(C3=CCCCC3)nc21` [Example 13, 2-(7-Cyclohexenyl-4-hydroxy-1-methyl-2-oxo-1,2-dihydro-1,8-naphthyridine-3-carboxamido)acetic acid], less than 50 nM; that for `Cn1c(=O)c(C(=O)NCC(=O)O)c(O)c2cc(C3=CCNCC3)ncc21` [Example 114, 2-(4-Hydroxy-1-methyl-2-oxo-6-(1,2,3,6-tetrahydropyridin-4-yl)-1,2-dihydro-1,7-naphthyridine-3-carboxamido)acetic acid, Trifluoroacetic acid salt], 50 to 100 nM.

Turning to `Cn1c(=O)c(C(=O)NCC(=O)O)c(O)c2cc(C3CCCCO3)cnc21` (single isomer, unassigned) [Example 69, (R)-2-(4-hydroxy-1-methyl-2-oxo-6-(tetrahydro-2 H-pyran-2-yl)-1,2-dihydro-1,8-naphthyridine-3-carboxamido)acetic acid or (S)-2-(4-hydroxy-1-methyl-2-oxo-6-(tetrahydro-2 H-pyran-2-yl)-1,2-dihydro-1,8-naphthyridine-3-carboxamido)acetic acid], the half-maximal inhibitory concentration (IC50) was in the range of 50 to 100 nM. The result for `Cn1c(=O)c(C(=O)NCC(=O)O)c(O)c2ncc(C3=CCCC3)cc21` [Example 4, 2-(7-Cyclopentenyl-4-hydroxy-1-methyl-2-oxo-1,2-dihydro-1,5-naphthyridine-3-carboxamido)acetic acid] reads less than 50 nM; that for `Cn1c(=O)c(C(=O)N[C@@H](CO)C(=O)O)c(O)c2cc(C3=CCCCC3)cnc21` [Example 133, (S)-2-(6-cyclohexenyl-4-hydroxy-1-methyl-2-oxo-1,2-dihydro-1,8-naphthyridine-3-carboxamido)-3-hydroxypropanoic acid], 500 to 1000 nM; that for `Cn1c(=O)c(C(=O)NCC(=O)O)c(O)c2cc(C3CCCCC3)cnc21` [Example 66, 2-(6-Cyclohexyl-4-hydroxy-1-methyl-2-oxo-1,2-dihydro-1,8-naphthyridine-3-carboxamido)acetic acid], less than 50 nM. With `Cn1c(=O)c(C(=O)NCC(=O)O)c(O)c2cc(C3CCCO3)c(C(F)(F)F)nc21` (single isomer, unassigned) [Example 102, (R)-2-(4-Hydroxy-1-methyl-2-oxo-6-(tetrahydrofuran-2-yl)-7-(trifluoromethyl)-1,2-dihydro-1,8-naphthyridine-3-carboxamido)acetic acid or (S)-2-(4-Hydroxy-1-methyl-2-oxo-6-(tetrahydrofuran-2-yl)-7-(trifluoromethyl)-1,2-dihydro-1,8-naphthyridine-3-carboxamido)acetic acid] the figure was 50 to 100 nM. The compound `Cn1c(=O)c(C(=O)NCC(=O)O)c(O)c2ccc(N3CCC(C(F)(F)F)CC3)nc21` [Example 24, 2-(4-Hydroxy-1-methyl-2-oxo-7-(4-(trifluoromethyl)piperidin-1-yl)-1,2-dihydro-1,8-naphthyridine-3-carboxamido)acetic acid] returned an IC50 of 500 to 1000 nM.

With `Cn1c(=O)c(C(=O)NCC(=O)O)c(O)c2cc(-c3ccccc3C(F)(F)F)cnc21` [Example 42, N-((4-Hydroxy-1-methyl-2-oxo-6-(2-(trifluoromethyl)phenyl)-1,2-dihydro-1,8-naphthrydin-3-yl)carbonyl)glycine], the IC50 was in the range of 50 to 100 nM. The result for `Cn1c(=O)c(C(=O)NCC(=O)O)c(O)c2cc(C#CC(C)(C)C)cnc21` [Example 78, N-((6-(3,3-Dimethyl-1-butyn-1-yl)-4-hydroxy-1-methyl-2-oxo-1,2-dihydro-1,8-naphthyridin-3-yl)carbonyl)glycine] reads less than 50 nM; that for `Cn1c(=O)c(C(=O)NCC(=O)O)c(O)c2c(C(F)(F)F)nccc21` [Example 132, 2-(4-Hydroxy-1-methyl-2-oxo-5-(trifluoromethyl)-1,2-dihydro-1,6-naphthyridine-3-carboxamido)acetic acid, Trifluoroacetic acid salt], 50 to 100 nM; that for `CN1CCC(c2cc3c(O)c(C(=O)NCC(=O)O)c(=O)n(C)c3cn2)CC1` [Example 117, 2-(4-Hydroxy-1-methyl-6-(1-methylpiperidin-4-yl)-2-oxo-1,2-dihydro-1,7-naphthyridine-3-carboxamido)acetic acid, Trifluoroacetic acid salt], less than 50 nM. Regarding `CN(C)c1ccc(-c2cnc3c(c2)c(O)c(C(=O)NCC(=O)O)c(=O)n3C)cc1` [Example 49, N-((6-(4-(Dimethylamino)phenyl)-4-hydroxy-1-methyl-2-oxo-1,2-dihydro-1,8-naphthyridin-3-yl)carbonyl)glycine], the half-maximal inhibitory concentration (IC50) was 100 to 500 nM.
